Results from article PMC9685055, “Biological activity of new bioactive steroids deriving from biotransformation of cortisone” (Microbial Cell Factories, 2022).

Columns and labels:
[1] = tested on: IL-8 gene expression in TNFα-stimulated HaCaT cells; assay: TNFα-induced IL-8 gene expression, real-time PCR; assay type: cell-based; details: 10 μM pretreatment 24 h, then 10 ng/mL TNFα 1 h
Procedure: (§1) HaCaT cells were cultured with Dulbecco’s modified Eagle’s medium High Glucose (Lonza, Milan, Italy) supplemented with 10% FBS, 100 U/mL penicillin, 100 μg/mL streptomycin and 2 mM L-glutamine as previously described. Cells were maintained in a humidified incubator at 37 °C with 5% CO2 and incubated until the monolayer was 80% confluent. Medium was changed every 2 days.
(§2) HaCaT cells were pretreated with or without 10 μM of both SCA and SCB for 24 h. Stock solutions of the two compounds were prepared in DMSO immediately before use and diluted to the final concentration in the culture medium. In some sets of experiments, betamethasone-17-valerate (10 µg/mL) served as a positive control; dimethyl sulfoxide (DMSO) served as a solvent control. After the pretreatments, cells were stimulated with 10 ng/mL TNFα for 1 h to induce the NFκB signaling pathway. Then, media were replaced with fresh culture medium. Cells and supernatants were collected at different time points for each set of experiments as described below.
Quantitative real-time PCR was carried out as described in detail previously. Briefly, HaCaT cells were treated as indicated above and harvested for RNA extraction 3 h after the end of the proinflammatory stimulus with TNFα. […] Quantitative real-time PCR (qPCR) was performed using SYBR green on the CFX Multicolor real-time PCR detection system (Bio-Rad, Italy). […]

[2] = tested on: Salmonella typhimurium TA98; assay: Ames test (plate incorporation), strain TA98; assay type: cell-based
Procedure: (§3) Mutagenicity assay was performed following the plate incorporation method with the histidine-requiring Salmonella typhimurium mutant TA98 and TA100 strains. All strains (100 µl per plate of fresh overnight cultures) were checked with and without the addition of 0.5 mL of a 5% S9 exogenous metabolic activator (S9 mix). The lyophilized post-mitochondrial supernatant S9 mix (Aroclor 1254-induced, Sprague–Dawley male rat liver in 0.154 M KCl solution, Molecular Toxicology, Inc., Boone, NC, USA), commonly used for the activation of pro-mutagens to mutagenic metabolites, was stored at− 80 °C before use. The concentration tested for all the samples were 1, 5, 10, 50, 100 µL/plate of a stock solution 100 mg/mL.
(§4) A fully-grown culture of the appropriate tester strain (0.1 mL) was added to 2 mL Molten Top Agar (0.6% agar, 0.6% NaCl, 0.5 mM L-histidine/biotin solution) at 46 °C, together with 0.1 mL of each sample solution at different concentrations, and 0.5 mL S9 mix for assays with metabolic activation or 0.5 mL of phosphate buffer pH 7.4 to test without metabolic activation. The ingredients were thoroughly mixed and poured onto minimal glucose agar plates (1.5% agar in 2% Vogel–Bonner medium E with 5% glucose solution).
(§5) DMSO was used as a negative control (100 µl/plate). Positive controls were prepared as follows: 2-aminoanthracene (2 µg/plate) and 2-nitrofluorene (2 µg/plate) for TA98 with and without metabolic activator (S9 mix) respectively; 2-aminoanthracene (2 µg/plate) and sodium azide (2 µg/plate) for TA100, with and without metabolic activator (S9 mix) respectively. The plates were incubated at 37 °C for 72 h and then the his^+ revertants were checked and counted using a Colony Counter 560 Suntex (Antibioticos, Italy). A sample was considered mutagenic when the observed number of colonies was at least twofold over the spontaneous level of revertants. All determinations were made in triplicate. Relative standard deviations were computed using the statistical software […] 6.0 (StatSoft Italia srl).

[3] = tested on: Salmonella typhimurium TA100; assay: Ames test (plate incorporation), strain TA100; assay type: cell-based
Procedure: as §3, §4, §5

[4] = tested on: IL-1α secretion in TNFα-stimulated HaCaT cells; assay: TNFα-induced IL-1α secretion, ELISA; assay type: cell-based, human; details: 10 μM pretreatment 24 h, then 10 ng/mL TNFα 1 h, supernatant 24 h later
Procedure: as §1
as §2, with “Cells and supernatants were collected at different time points for each set of experiments as described below.” left out
IL-1α secretion, after the treatment with 10 and 20 µM of each compound and together at the same concentrations, was assayed by a commercially available ELISA kit (Thermo Scientific, Italy). […] The optical absorbance was measured with a spectrophotometer microplate reader at 450 nm and correction at 530 nm. Final concentrations were calculated by interpolation with a standard curve of Recombinant Human IL-1α provided by the kit and results expressed as pg/mL.

[5] = TA98, + S9, 1 µL/plate of a stock solution 100 mg/mL
[6] = TA98, + S9, 5 µL/plate of a stock solution 100 mg/mL
[7] = TA98, + S9, 10 µL/plate of a stock solution 100 mg/mL
[8] = TA98, + S9, 50 µL/plate of a stock solution 100 mg/mL
[9] = TA98, + S9, 100 µL/plate of a stock solution 100 mg/mL
[10] = TA98, − S9, 1 µL/plate of a stock solution 100 mg/mL
[11] = TA98, − S9, 5 µL/plate of a stock solution 100 mg/mL
[12] = TA98, − S9, 10 µL/plate of a stock solution 100 mg/mL
[13] = TA98, − S9, 50 µL/plate of a stock solution 100 mg/mL
[14] = TA98, − S9, 100 µL/plate of a stock solution 100 mg/mL
[15] = TA100, + S9, 1 µL/plate of a stock solution 100 mg/mL
[16] = TA100, + S9, 5 µL/plate of a stock solution 100 mg/mL
[17] = TA100, + S9, 10 µL/plate of a stock solution 100 mg/mL
[18] = TA100, + S9, 50 µL/plate of a stock solution 100 mg/mL
[19] = TA100, + S9, 100 µL/plate of a stock solution 100 mg/mL
[20] = TA100, − S9, 1 µL/plate of a stock solution 100 mg/mL
[21] = TA100, − S9, 5 µL/plate of a stock solution 100 mg/mL
[22] = TA100, − S9, 10 µL/plate of a stock solution 100 mg/mL
[23] = TA100, − S9, 50 µL/plate of a stock solution 100 mg/mL
[24] = TA100, − S9, 100 µL/plate of a stock solution 100 mg/mL

SMILES: Cc1ccc(O)c2c1CCC1C3CC[C@](O)(C(=O)CO)[C@@]3(C)CC(=O)[C@@]21O (stereo partly drawn) [SCA, 1,9β,17,21‐tetrahydoxy‐4‐methyl‐19‐nor‐9β‐pregna‐1,3,5(10)‐trien‐11,20‐dione]
- effect on TNFα-triggered IL-8 mRNA upregulation [1]: completely abolish
- genotoxic activity (Ames test) [2]: For none of the samples genotoxic activity emerged
- average number of revertant colonies [2, 5]: 43,7
- t/c (revertant colonies in treated plates/untreated plates) [2, 5]: 1.2
- average number of revertant colonies [2, 6]: 43,3
- t/c (revertant colonies in treated plates/untreated plates) [2, 6]: 1.2
- average number of revertant colonies [2, 7]: 41,3
- t/c (revertant colonies in treated plates/untreated plates) [2, 7]: 1.1
- average number of revertant colonies [2, 8]: 39,3
- t/c (revertant colonies in treated plates/untreated plates) [2, 8]: 1.1
- average number of revertant colonies [2, 9]: 41,3
- t/c (revertant colonies in treated plates/untreated plates) [2, 9]: 1.1
- average number of revertant colonies [2, 10]: 17,7
- t/c (revertant colonies in treated plates/untreated plates) [2, 10]: 0.9
- average number of revertant colonies [2, 11]: 23,7
- t/c (revertant colonies in treated plates/untreated plates) [2, 11]: 1.1
- average number of revertant colonies [2, 12]: 23,3
- t/c (revertant colonies in treated plates/untreated plates) [2, 12]: 1.1
- average number of revertant colonies [2, 13]: 25,3
- t/c (revertant colonies in treated plates/untreated plates) [2, 13]: 1.2
- average number of revertant colonies [2, 14]: 20,3
- t/c (revertant colonies in treated plates/untreated plates) [2, 14]: 1.0
- genotoxic activity (Ames test) [3]: For none of the samples genotoxic activity emerged
- average number of revertant colonies [3, 15]: 179.3
- t/c (revertant colonies in treated plates/untreated plates) [3, 15]: 1.0
- average number of revertant colonies [3, 16]: 181.7
- t/c (revertant colonies in treated plates/untreated plates) [3, 16]: 1.0
- average number of revertant colonies [3, 17]: 185.3
- t/c (revertant colonies in treated plates/untreated plates) [3, 17]: 1.0
- average number of revertant colonies [3, 18]: 205.7
- t/c (revertant colonies in treated plates/untreated plates) [3, 18]: 1.1
- average number of revertant colonies [3, 19]: 194.3
- t/c (revertant colonies in treated plates/untreated plates) [3, 19]: 1.1
- average number of revertant colonies [3, 20]: 163.0
- t/c (revertant colonies in treated plates/untreated plates) [3, 20]: 1.0
- average number of revertant colonies [3, 21]: 164.3
- t/c (revertant colonies in treated plates/untreated plates) [3, 21]: 1.0
- average number of revertant colonies [3, 22]: 158.0
- t/c (revertant colonies in treated plates/untreated plates) [3, 22]: 1.0
- average number of revertant colonies [3, 23]: 157.0
- t/c (revertant colonies in treated plates/untreated plates) [3, 23]: 0.9
- average number of revertant colonies [3, 24]: 166.7
- t/c (revertant colonies in treated plates/untreated plates) [3, 24]: 1.0
- effect on TNFα-triggered IL-1α release [4]: markedly inhibited

SMILES: Cc1ccc(O)c2c1CCC1C3CC[C@](O)([C@H](O)CO)[C@@]3(C)CC(=O)[C@@]21O (stereo partly drawn) [SCB, 1,9β,17,20β,21‐ pentahydoxy‐4‐methyl‐19‐nor‐9β‐pregna‐1,3,5(10)‐trien‐11‐one]
- effect on TNFα-triggered IL-8 mRNA upregulation [1]: completely abolish
- genotoxic activity (Ames test) [2]: For none of the samples genotoxic activity emerged
- average number of revertant colonies [2, 5]: 34
- t/c (revertant colonies in treated plates/untreated plates) [2, 5]: 1.1
- average number of revertant colonies [2, 6]: 35
- t/c (revertant colonies in treated plates/untreated plates) [2, 6]: 1.1
- average number of revertant colonies [2, 7]: 35
- t/c (revertant colonies in treated plates/untreated plates) [2, 7]: 1.1
- average number of revertant colonies [2, 8]: 31
- t/c (revertant colonies in treated plates/untreated plates) [2, 8]: 1.0
- average number of revertant colonies [2, 9]: 30
- t/c (revertant colonies in treated plates/untreated plates) [2, 9]: 0.9
- average number of revertant colonies [2, 10]: 24
- t/c (revertant colonies in treated plates/untreated plates) [2, 10]: 1.0
- average number of revertant colonies [2, 11]: 23
- t/c (revertant colonies in treated plates/untreated plates) [2, 11]: 0.9
- average number of revertant colonies [2, 12]: 22
- t/c (revertant colonies in treated plates/untreated plates) [2, 12]: 0.9
- average number of revertant colonies [2, 13]: 21
- t/c (revertant colonies in treated plates/untreated plates) [2, 13]: 0.9
- average number of revertant colonies [2, 14]: 19
- t/c (revertant colonies in treated plates/untreated plates) [2, 14]: 0.8
- genotoxic activity (Ames test) [3]: For none of the samples genotoxic activity emerged
- average number of revertant colonies [3, 15]: 190
- t/c (revertant colonies in treated plates/untreated plates) [3, 15]: 1.0
- average number of revertant colonies [3, 16]: 194
- t/c (revertant colonies in treated plates/untreated plates) [3, 16]: 1.0
- average number of revertant colonies [3, 17]: 193
- t/c (revertant colonies in treated plates/untreated plates) [3, 17]: 1.0
- average number of revertant colonies [3, 18]: 189
- t/c (revertant colonies in treated plates/untreated plates) [3, 18]: 1.0
- average number of revertant colonies [3, 19]: 195
- t/c (revertant colonies in treated plates/untreated plates) [3, 19]: 1.0
- average number of revertant colonies [3, 20]: 157
- t/c (revertant colonies in treated plates/untreated plates) [3, 20]: 0.9
- average number of revertant colonies [3, 21]: 169
- t/c (revertant colonies in treated plates/untreated plates) [3, 21]: 1.0
- average number of revertant colonies [3, 22]: 164
- t/c (revertant colonies in treated plates/untreated plates) [3, 22]: 1.0
- average number of revertant colonies [3, 23]: 169
- t/c (revertant colonies in treated plates/untreated plates) [3, 23]: 1.0
- average number of revertant colonies [3, 24]: 180
- t/c (revertant colonies in treated plates/untreated plates) [3, 24]: 1.1
- effect on TNFα-triggered IL-1α release [4]: markedly inhibited
